Here are results for 5 molecules from patent publication US7262336B2 (priority 2000, dated 2007).

What all share (type): in vivo, rat
The test system of data set [1] is Gαq mutant transgenic rats. Briefly: DOI induced headshakes and lethality in Gq transgenic rats. As to conditions: for number of headshakes: 0.1 mg/kg. As to the method:
(§1) In general, 10 male and 10 female heterozygotes of each line were compared with a similar number of wild-type littermate controls. Testing began at 7-8 weeks of age. Subjects were individually housed in hanging metal mesh cages with ad libitum access to food and water under a 12 h light/dark cycle. For Lines 76, 67, and 11 the subjects were maintained on powdered rodent chow for the duration of the study. Subjects from Lines 58 and 75 were adapted to powdered chow for the feeding studies and then maintained on that chow for the remainder of the study. Subjects were evaluated in a series of tests outlined below over a period of approximately 12 weeks.
Wild type and transgenic rats were injected ip with either vehicle or DOI (0.001, 0.01, 0.1, 1.0 mg/kg) and were then housed singly in clear Plexiglas chambers (10″×18″×8″) for observational studies. A trained observer counted the number of headshakes for each rat during 2 observation periods (0-30 min; 45-75 min).
Assessing the effect of the RGS insensitive Gαq mutant transgene on receptors coupled via Gαq to the IP3 pathway in transgenic rats was an interest. 5-HT2A agonists produce large increases in headshakes in rats via this pathway. DOI (−1[2,5-dimethoxy-4-iodophenyl]-2-aminopropane) is a 5-HT2A receptor agonist, which increases headshakes in rats, and it has been used to investigate this pathway (Wettstein et al., 1999). DOI administration was used herein to determine if 5-HT2A agonist activity was modified in transgenic rats; results are shown in FIG. 27.

The subject of data set [2] is normal Sprague-Dawley rats. The data set can be described thus: DOI lethality in normal rats (separate experiments). As to conditions: doses as high as 30 mg/kg. The procedure: Higher doses of DOI (3-10 mg/kg) were required to produce similar effects in line 11 (data not shown).
Data set [3] deals with Gαq mutant transgenic rats. Briefly: Stimulant-induced locomotor activity (d-amphetamine, phencyclidine) in Gq transgenic rats. The procedure:
as §1
To complement the observations of motor activity obtained using the open field test, heterozygotes and wildtype littermate controls were evaluated for spontaneous locomotor activity using an automated data collection system and a more extended test period. Data in this test was collected in multiple time bins over the test period allowing for some assessment of both the exploratory activity level in a novel environment as well as the rate of habituation to that environment. Having habituated the subjects, a stimulant was administered to determine the responsiveness of these subjects to the stimulant using locomotor activity as a measure. In this study we used an indirect-acting dopamine agonist, d-amphetamine, and a NMDA excitatory amino acid antagonist, phencyclidine, to induce locomotion. The ability of d-amphetamine to increase motor activity is dependent on dopaminergic neurotransmission in the striatum, in particular the nucleus accumbens, but can be influenced by other neurotransmitters. The ability of phencyclidine to induce locomotor activity is dependent on changes in both dopamine and glutatmate neurotransmission (Adams and Moghaddam, J. Neurosci. 1998, 18:5545-54). The differences in locomotor activity observed under spontaneous and stimulant-induced conditions in heterozygotes vs. wildtype littermate controls are summarized in FIGS. 15 and 16.
Subjects were placed in activity monitors (Model RXYZCM16, Omnitech, Columbus, Ohio) equipped with infrared beams to detect movements on both the horizontal (16×16 in field) and vertical axes. The testing room was equipped with white noise. Following a 60 min habituation period during which activity was monitored for differences in spontaneous locomotor activity, each subject was treated with a dose of 1 mg/kg d-amphetamine ip and returned to the activity monitor. Activity induced by d-amphetamine was monitored for 2 h. On a separate occasion, these same subjects were placed in the activity monitors and allowed to habituate for 60 min. Following this re-habituation, each subject was treated with 10 mg/kg phencyclidine ip and monitored for activity for an additional 4 h. The doses of d-amphetamine and phencyclidine were selected based on other studies as doses that induce a hyperactive state in normal rats (see Adams and Moghaddam, supra; Krebs-Thomson et al., Fur. J. Pharmacol. 1998, 343:135-43). Data were analyzed using LSD following a 2-way ANOVA (transgene×time) with one repeated measure (time). Outcomes were determined significant at p<0.05.

Data set [4] deals with Gαq mutant transgenic rats. The data set can be described thus: Pilocarpine-induced cholinergic signs and convulsions in Gq transgenic rats. As to the method:
Muscarinic cholinergic agonists produce a series of cholinergic signs (chromodacryrhea, salivation, diarrhea, hypoactivity, tremors, foaming, convulsions and death) at high doses via a Gαq modulated pathway. Studies were conducted with the muscarinic agonist pilocarpine to determine if muscarinic agonist activity was modified in the transgenic rats (FIG. 28). Studies were conducted with the muscarinic agonist pilocarpine to determine if muscarinic agonist activity was modified by acute lithium (FIG. 29 or chronic lithium (FIG. 30). Both acute and chronic lithium potentiated the cholinergic signs produced by pilocarpine.

The subject of data set [5] is Gαq mutant transgenic rats. Briefly: Food intake after RO 60-0175 in Gq transgenic rats vs wild-type littermates. As to the method: as §1
Wild-type and transgenic rats were maintained on powdered chow in their home cages. Rats were fasted for 24 h prior to evaluation of food intake. Food intake was measured at 2, 4, and 24 h timepoints following ip injection of vehicle, 1, or 1.7 mg/kg RO 60-0175. Experimental sessions were generally conducted on Tues and Fri with 24 h fasts initiating on Mon and Thurs. […] 5-HT2C agonists decrease food intake via a Gαq modulated pathway. Studies using the selective 5-HT2C agonist RO 60-0175 were conducted to determine if 5-HT2C agonist activity was modified in transgenic rats.
To account for the baseline differences in food intake between wild-type and transgenic rats, the effects of RO 60-0175 were calculated as a percentage of the vehicle food intake. The effects of 1.7 mg/kg RO 60-0175 were greater in both males and females for transgenic heterozygotes for lines 75 and 67 (FIG. 7). The effects of 1.0 mg/kg RO 60-0175 were greater in males of line 67 as well (data not shown). […] There was no change in the effects of RO 60-0175 in rats from lines 58, 76, or 11.

Turning to `COc1cc(CC(C)N)c(OC)cc1I` (stereo not shown) [DOI, −1[2,5-dimethoxy-4-iodophenyl]-2-aminopropane], the number of headshakes result in data set [1] (line 67 male transgenic heterozygote rats) is “trend toward increased headshakes”; in data set [1] (line 75 male transgenic heterozygote rats), “increased”. Further, the lethality result in data set [1] (1 mg/kg, transgenic rats from lines 58, 75, 67 and 76) is on record as “found dead within 24 hours”; in data set [2] it was “did not result in lethality”. Besides, the “5-HT2A Agonist (DOI) Induction of Head Shakes” value in data set [1] (Gαq mutant Transgenics, cell wraps: 4 of 5 lines ↓ headshakes) is reported as 4 of 5 lines ↓. For the same molecule, in data set [1] (Gαq mutant Transgenics, cell wraps: FBP, conv and death at 1.0 mg/kg, higher doses required for line 11), the “5-HT2A Agonist (DOI) Flattened Body Posture, Convulsions, Death” value was 4 of 5 lines show FBP,. Moreover, the “doses required to produce similar effects (lethality)” value in data set [1] (transgenic line 11) fell in the range of 3 to 10 mg/kg.

As to `c1ccc(C2(N3CCCCC3)CCCCC2)cc1` [PCP, phencyclidine], the “locomotor activity induced by phencyclidine, heterozygotes vs wildtype” value in data set [3] (10 mg/kg ip, Line 58 males, delayed in the onset) is on record as “increase in locomotor activity”; in data set [3] (10 mg/kg ip, Line 76 females, Line 11 males and females, to a lesser degree Line 67 females), “delayed hyperactivity”. Besides, the “phencyclidine locomotor activity, heterozygotes vs wildtype” value in data set [3] (10 mg/kg ip, Line 67 males) is on record as “reduced”. Also, in data set [3] (10 mg/kg ip, Line 76 male (p=0.07)), the “phencyclidine-induced activity, heterozygotes vs wildtype” value is “slight trend toward a similar reduction”. In addition, the “Noncompetitive NMDA antagonist (PCP) Locomotor Activity” value in data set [3] (Gαq mutant Transgenics, cell wraps: 4 of 5 lines ↑ hyperactivity (delayed)) was 4 of 5 lines ↑.

`CC[C@@H]1C(=O)OC[C@@H]1Cc1cncn1C` [Pilocarpine, pilocarpine]: the “Muscarinic Agonist (Pilocarpine) Convulsions, Death” value in data set [4] (Gαq mutant Transgenics, cell wraps: 3 of 3 lines tested conv and death (10–30 mg/kg)) is recorded as 3 of 3 lines tested conv. The “Muscarinic Agonist (Pilocarpine) Induction of cholinergic signs” value in data set [4] (Gαq mutant Transgenics, cell wraps: 3 of 3 lines tested ↑ cholinergic signs) is reported as 3 of 3 lines tested ↑. The “sensitivity of the transgenic rats to the muscarinic agonist” value in data set [4] (transgenic rats) is given as “increased sensitivity”.

For `C[C@H](N)Cn1ccc2cc(F)c(Cl)cc21` [RO 60-0175], in data set [5] (1.0 mg/kg ip, line 75 females), the “effect on food intake as percentage of vehicle food intake, transgenic vs wild-type” value is “greater in wildtype than in transgenic rats”. For the same molecule, the “effect on food intake as percentage of vehicle food intake, transgenic heterozygotes vs wild-type” value in data set [5] (1.0 mg/kg ip, males of line 67) is “greater”; in data set [5] (1.7 mg/kg ip, males and females, lines 75 and 67), “greater”. The “5-HT2C Agonist (RO60-0175) Inhibition of Food Intake” value in data set [5] (Gαq mutant Transgenics, cell wraps: 2 of 5 lines ↑sensitivity to RO 60-0175) is given as 2 of 5 lines. Also, in data set [5] (lines 58, 76, or 11), the “change in effect on food intake, transgenic vs wild-type” value is given as “no change”.

With `C[C@H](N)Cc1ccccc1` [d-amph, d-amphetamine], the “amphetamine-induced locomotor activity, heterozygotes vs wildtype” value in data set [3] (1 mg/kg ip, males of Lines 58, 75, 67, 11 and females of Line 67, 76, 11, but not males of Line 76) was “reduced amphetamine-induced locomotor activity”. Moreover, the “Indirect DA agonist (d-amph) Locomotor Activity” value in data set [3] (Gαq mutant Transgenics, cell wraps: All lines ↓ hyperactivity) is listed as “All lines ↓”.
